Patent US4544512A, “Tridecyloxy- or tetradecyloxy-propane derivatives” (Takeda Chemical Industries, Ltd., priority 1980, dated 1985)
In brackets after ≈: the same amount, converted by molar mass. Read-outs that look alike come from different tables or passages of the source.

Assays:
Format in all cases: cell-based
Pyricularia oryzae = assay: microbe, parasite or virus in culture; details: read-out: MIC Pyricularia oryzae (rice blast)
Cochliobolus miyabeanus = assay: Antifungal activity, serial dilution method (MIC); details: Bipolaris oryzae, read-out: MIC Cochliobolus miyabeanus (rice Helminthosporium leaf spot)
Gibberella fujikuroi = assay: Antifungal activity, serial dilution method (MIC); details: Fusarium fujikuroi, read-out: MIC Gibberella fujikuroi (rice Bakanae-disease)
Botrytis cinerea = assay: Antifungal activity, serial dilution method (MIC); details: read-out: MIC Botrytis cinerea (gray mold)
Alternaria solani = assay: Antifungal activity, serial dilution method (MIC); details: 1% glucose-bouillon agar medium, read-out: MIC Alternaria solani (potato early blight)
Leptosphaeria salvinii = assay: Antifungal activity, serial dilution method (MIC); details: Nakataea oryzae, read-out: MIC Leptosphaeria salvinii (rice stem rot)
[1] = test system: Colletotrichum lagenarium; assay: Antifungal activity, serial dilution method (MIC); details: Colletotrichum orbiculare, read-out: MIC Colletotrichum lagenarium (cucumber anthracnose)
[2] = test system: mouse myeloid leukemia M1 cells; assay: Induced differentiation of mouse myeloid leukemia M1 cells; details: at optimal dose: C00019 1 μg/ml, drawing 20 2 μg/ml; for Phagocytic cells: None 2.0 %; for Morphological change: None 2.1 %; for Lysozyme activity: None 2.2
Experimental: By employing soft-agar medium having similar components to those in Test Example 1, incubation of myeloid leukemia (M1) cells harvested from mice was conducted in the presence of the test compound in its optimal concentration. Observation on various biological and biochemical properties caused by induced differentiation was conducted. In Table 2 are given the results obtained by determination of the degree of the induced differentiation employing, as the indexes, among those properties, morphological changes (matured granulocytes, matured macrophages, others caused by changes in appearance of cells at the stage of differentiation),phagocytic activity (plastic small pieces.phagocytosis) and lysozyme activity. Additionally stating, these morphological changes were not observed under the conditions devoid of the drugs.

[3] = test system: human promyelocytic leukemia HL-60 cells; assay: Induced differentiation of human promyelocytic leukemia HL-60 cells; details: six day incubation; optimal dose: C00021 1 μg/ml, drawing 22 4 μg/ml
Experimental: By employing soft-agar medium, incubation of human promyelocytic leukemia HL-60 cells was conducted in the presence of a drug at its optimal concentration. It was observed that the leukemia HL-60 cells were gradually changing into mature myeloid cells or phagocytic cells as the induced differentiation proceeded. After six day incubation, number of these cells was counted, and the respective ratios (%) relative to the total number of these cells were calculated, as shown in Table 3. Additionally stating, these changes were not observed under the conditions devoid of the drugs.

Tetrahymena pyriformis W = assay: Antiprotozoal activity, broth dilution method (MIC); details: 28° C., 44-48 hours, read-out: MIC against Tetrahymena pyriformis W
Experimental: Referring to the antiprotozoal activity given in Table 4, the microbial growth inhibiting activity (MIC) of each compound of this invention was assayed by the broth dilution method by incubating Tetrahymena pyriformis W strain as the test organism at 28° C. for 44-48 hours, using a test culture medium comprising 20 g of Tryptose peptine (Difco), 1 g of yeast extract, 2 g of glucose. 1,000 ml of distilled water and 10 ml of 1M phosphate buffer (pH 7.0).

[4] = test system: Cryptococcus unigtullatas; assay: Antimycotic activity, paper disk inhibition zone; details: 48 h, concentration of 3 mg/ml, paper disk 8 mm, 37° C., 2 days, read-out: Inhibition zone diameters
Experimental: Referring to the antimycotic activity presented in Table 5, Cryptococcus unigtullatas and others were used as the test microbes, a paper disk (8 mm in diameter) was immersed in an aqueous solution of each test compound having a concentration of 3 mg/ml, air dried and placed on an agar medium, then incubation was conducted at 37° C. for 2 days, and the diameter (mm) of the inhibition zone was measured.

[5] = 1% glucose-bouillon agar medium

## CCCCCCCCCCCCOCC(COP(=O)([O-])OCC[N+](C)(C)C)OC (centres unmarked) [Compound (A) R = C12 H25, reference compound]
Pyricularia oryzae
  MIC: 25 µg/mL (≈ 56.9 µM)
Cochliobolus miyabeanus
  MIC: > 100 µg/mL
Gibberella fujikuroi; [5]
  MIC: > 100 µg/mL
Botrytis cinerea; [5]
  MIC: 50 µg/mL (≈ 114 µM)
Alternaria solani
  MIC: 50 µg/mL (≈ 114 µM)
Leptosphaeria salvinii; [5]
  MIC: 25 µg/mL (≈ 56.9 µM)
[1]; [5]
  MIC: 12.5 µg/mL (≈ 28.4 µM)

## CCCCCCCCCCCCCOCC(COP(=O)([O-])OCC[N+](C)(C)C)OC (centres unmarked) [Compound (A) R = C13 H27]
Pyricularia oryzae
  MIC: 12.5 µg/mL (≈ 27.6 µM)
Cochliobolus miyabeanus
  MIC: > 100 µg/mL
Gibberella fujikuroi; [5]
  MIC: > 100 µg/mL
Botrytis cinerea
  MIC: 12.5 µg/mL (≈ 27.6 µM)
Alternaria solani
  MIC: 50 µg/mL (≈ 110 µM)
Leptosphaeria salvinii; [5]
  MIC: 6.25 µg/mL (≈ 13.8 µM)
[1]; [5]
  MIC: 6.25 µg/mL (≈ 13.8 µM)

## CCCCCCCCCCCCCCOCC(COP(=O)([O-])OCC[N+](C)(C)C)OC (centres unmarked) [Compound (A) R = C14 H29]
Pyricularia oryzae
  MIC: 3.12 µg/mL (≈ 6.67 µM)
Cochliobolus miyabeanus
  MIC: 12.5 µg/mL (≈ 26.7 µM)
Gibberella fujikuroi; [5]
  MIC: 25 µg/mL (≈ 53.5 µM)
Botrytis cinerea; [5]
  MIC: 6.25 µg/mL (≈ 13.4 µM)
Alternaria solani
  MIC: 100 µg/mL (≈ 214 µM)
Leptosphaeria salvinii
  MIC: 3.12 µg/mL (≈ 6.67 µM)
[1]; [5]
  MIC: 25 µg/mL (≈ 53.5 µM)

## CCCCCCCCCCCCCCCCCCOCC(COP(=O)([O-])OCC[N+](C)(C)C)OC (centres unmarked) [Compound (A) R = C18 H37, reference compound]
Pyricularia oryzae
  MIC: 6.25 µg/mL (≈ 11.9 µM)
Cochliobolus miyabeanus
  MIC: > 100 µg/mL
Gibberella fujikuroi; [5]
  MIC: > 100 µg/mL
Botrytis cinerea; [5]
  MIC: 25 µg/mL (≈ 47.7 µM)
Alternaria solani
  MIC: > 100 µg/mL
Leptosphaeria salvinii; [5]
  MIC: 12.5 µg/mL (≈ 23.9 µM)
[1]; [5]
  MIC: > 100 µg/mL

## CCCCCCCCCCCCOCCCOP(=O)([O-])OCC[N+](C)(C)C [Compound (B) R = C12 H25, reference compound]
Pyricularia oryzae
  MIC: 12.5 µg/mL (≈ 30.5 µM)
Cochliobolus miyabeanus
  MIC: 6.25 µg/mL (≈ 15.3 µM)
Gibberella fujikuroi; [5]
  MIC: 100 µg/mL (≈ 244 µM)
Botrytis cinerea; [5]
  MIC: 25 µg/mL (≈ 61 µM)
Alternaria solani
  MIC: 50 µg/mL (≈ 122 µM)
Leptosphaeria salvinii; [5]
  MIC: 25 µg/mL (≈ 61 µM)
[1]
  MIC: 6.25 µg/mL (≈ 15.3 µM)

## CCCCCCCCCCCCCOCCCOP(=O)([O-])OCC[N+](C)(C)C [Compound (B) R = C13 H27]
Pyricularia oryzae
  MIC: 6.25 µg/mL (≈ 14.8 µM)
Cochliobolus miyabeanus
  MIC: 6.25 µg/mL (≈ 14.8 µM)
Gibberella fujikuroi; [5]
  MIC: 25 µg/mL (≈ 59 µM)
Botrytis cinerea
  MIC: 6.25 µg/mL (≈ 14.8 µM)
Alternaria solani
  MIC: 25 µg/mL (≈ 59 µM)
Leptosphaeria salvinii; [5]
  MIC: 12.5 µg/mL (≈ 29.5 µM)
[1]; [5]
  MIC: 1.56 µg/mL (≈ 3.68 µM)

## CCCCCCCCCCCCCCOCCCOP(=O)([O-])OCC[N+](C)(C)C [Compound (B) R = C14 H29]
Pyricularia oryzae
  MIC: 6.25 µg/mL (≈ 14.3 µM)
Cochliobolus miyabeanus
  MIC: 12.5 µg/mL (≈ 28.6 µM)
Gibberella fujikuroi
  MIC: 12.5 µg/mL (≈ 28.6 µM)
Botrytis cinerea
  MIC: 6.25 µg/mL (≈ 14.3 µM)
Alternaria solani
  MIC: 50 µg/mL (≈ 114 µM)
Leptosphaeria salvinii
  MIC: 6.25 µg/mL (≈ 14.3 µM)
[1]
  MIC: 6.25 µg/mL (≈ 14.3 µM)

## CCCCCCCCCCCCCCCCCCOCCCOP(=O)([O-])OCC[N+](C)(C)C [Compound (B) R = C18 H37, reference compound]
Pyricularia oryzae
  MIC: 12.5 µg/mL (≈ 25.3 µM)
Cochliobolus miyabeanus
  MIC: > 100 µg/mL
Gibberella fujikuroi; [5]
  MIC: > 100 µg/mL
Botrytis cinerea; [5]
  MIC: 25 µg/mL (≈ 50.6 µM)
Alternaria solani
  MIC: > 100 µg/mL
Leptosphaeria salvinii; [5]
  MIC: 50 µg/mL (≈ 101 µM)
[1]; [5]
  MIC: > 100 µg/mL

## CCCCCCCCCCCCCCCCCCOCC(COP(=O)([O-])OCC[N+](C)(C)C)OC (centres unmarked) [drawing 19, reference compound]
[2]
  Phagocytic cells: 13.4%
  Morphological change: 34.7%
  Lysozyme activity: 31.1 units/mg protein

## CCCCCCCCCCCCCCOCC(COP(=O)([O-])OCC[N+](C)(C)C)OC (centres unmarked) [drawing 20]
[2]
  Phagocytic cells: 25.9%
  Morphological change: 53.4%
  Lysozyme activity: 80.1 units/mg protein

## CCCCCCCCCCCCCCCCCCOCC(COP(=O)([O-])OCC[N+](C)(C)C)OC (centres unmarked) [drawing 21, reference compound]
[3]
  Mature myeloid cells: 43.0%
  NBT (nitro blue tetrazolium) reduction: 47.8%
  Phagocytic cells: 39.8%

## CCCCCCCCCCCCOCC(COP(=O)([O-])OCC[N+](C)(C)C)OC (centres unmarked) [drawing 23 R = C12 H25]
Tetrahymena pyriformis W
  MIC: 0.4 µg/mL (≈ 0.91 µM)

## CCCCCCCCCCCCCCOCC(COP(=O)([O-])OCC[N+](C)(C)C)OC (centres unmarked) [drawing 23 R = C14 H29]
Tetrahymena pyriformis W
  MIC: 0.2 µg/mL (≈ 0.428 µM)

## CCCCCCCCCCCCCCCCCCOCC(COP(=O)([O-])OCC[N+](C)(C)C)OC (centres unmarked) [drawing 23 R = C18 H37]
Tetrahymena pyriformis W
  MIC: 1 µg/mL (≈ 1.91 µM)

## CCCCCCCCCCCCCCOCC(COP(=O)(O)OCCN)OC (centres unmarked) [drawing 24 R = C14 H29]
Tetrahymena pyriformis W
  MIC: 2 µg/mL (≈ 4.7 µM)

## CCCCCCCCCCCCCCCCCCOCC(COP(=O)(O)OCCN)OC (centres unmarked) [drawing 24 R = C18 H37]
Tetrahymena pyriformis W
  MIC: 4 µg/mL (≈ 8.3 µM)

## CCCCCCCCCCCCOCCCOP(=O)([O-])OCC[N+](C)(C)C [drawing 25 R = C12 H25]
Tetrahymena pyriformis W
  MIC: 1 µg/mL (≈ 2.44 µM)

## CCCCCCCCCCCCCOCCCOP(=O)([O-])OCC[N+](C)(C)C [drawing 25 R = C13 H27]
Tetrahymena pyriformis W
  MIC: 0.2 µg/mL (≈ 0.472 µM)

## CCCCCCCCCCCCCCOCCCOP(=O)([O-])OCC[N+](C)(C)C [drawing 25 R = C14 H29]
Tetrahymena pyriformis W
  MIC: 0.2 µg/mL (≈ 0.457 µM)

## CCCCCCCCCCCCCCCCCCOCCCOP(=O)([O-])OCC[N+](C)(C)C [drawing 25 R = C18 H37]
Tetrahymena pyriformis W
  MIC: 2 to 4 µg/mL (≈ 4.05 to 8.1 µM)

## CCCCCCCCCCCCOCCCOP(=O)(O)OCCN [drawing 26 R = C12 H25]
Tetrahymena pyriformis W
  MIC: 2 µg/mL (≈ 5.44 µM)

## CCCCCCCCCCCCCOCCCOP(=O)(O)OCCN [drawing 26 R = C13 H27]
Tetrahymena pyriformis W
  MIC: 0.4 µg/mL (≈ 1.05 µM)

## CCCCCCCCCCCCCCOCCCOP(=O)(O)OCCN [drawing 26 R = C14 H29]
Tetrahymena pyriformis W
  MIC: 0.4 µg/mL (≈ 1.01 µM)

## CCCCCCCCCCCCCCCCCCOCCCOP(=O)(O)OCCN [drawing 26 R = C18 H37]
Tetrahymena pyriformis W
  MIC: 4 µg/mL (≈ 8.86 µM)

## CCCCCCCCCCCCOCC(COP(=O)([O-])OCC[N+](C)(C)C)OC (centres unmarked) [drawing 27 R = C12 H25]
[4]
  zone of inhibition at 3000 µg/mL: 15 mm

## CCCCCCCCCCCCCOCC(COP(=O)([O-])OCC[N+](C)(C)C)OC (centres unmarked) [drawing 27 R = C13 H27]
[4]
  zone of inhibition at 3000 µg/mL: 19 mm

## CCCCCCCCCCCCCCOCC(COP(=O)([O-])OCC[N+](C)(C)C)OC (centres unmarked) [drawing 27 R = C14 H29]
[4]
  zone of inhibition at 3000 µg/mL: 22 mm

## CCCCCCCCCCCCCCCCCCOCC(COP(=O)([O-])OCC[N+](C)(C)C)OC (centres unmarked) [drawing 27 R = C18 H37]
[4]
  zone of inhibition at 3000 µg/mL: 18 mm

## CCCCCCCCCCCCOCC(COP(=O)(O)OCCN)OC (centres unmarked) [drawing 28 R = C12 H25]
[4]
  zone of inhibition at 3000 µg/mL: < 5 mm

## CCCCCCCCCCCCCCOCC(COP(=O)(O)OCCN)OC (centres unmarked) [drawing 28 R = C14 H29]
[4]
  zone of inhibition at 3000 µg/mL: 13.5 mm

## CCCCCCCCCCCCCCCCCCOCC(COP(=O)(O)OCCN)OC (centres unmarked) [drawing 28 R = C18 H37]
[4]
  zone of inhibition at 3000 µg/mL: < 5 mm

## CCCCCCCCCCCCOCCCOP(=O)([O-])OCC[N+](C)(C)C [drawing 29 R = C12 H25]
[4]
  zone of inhibition at 3000 µg/mL: 19 mm

## CCCCCCCCCCCCCOCCCOP(=O)([O-])OCC[N+](C)(C)C [drawing 29 R = C13 H27]
[4]
  zone of inhibition at 3000 µg/mL: 20 mm

## CCCCCCCCCCCCCCOCCCOP(=O)([O-])OCC[N+](C)(C)C [drawing 29 R = C14 H29]
[4]
  zone of inhibition at 3000 µg/mL: 21 mm

## CCCCCCCCCCCCCCCCCCOCCCOP(=O)([O-])OCC[N+](C)(C)C [drawing 29 R = C18 H37]
[4]
  zone of inhibition at 3000 µg/mL: 17 mm
